Assay results taken from patent publication US7501430B2 (ArQule, Inc., priority 2006, dated 2009).

Biological target: T1, mutant B-RAF (Homo sapiens, UniProt P15056, V600E)
T1 construct: purchased Upstate (Charlottesville, Va.)
Experiment: RAF biochemical assay (MEK-1 phosphorylation, anti-phospho MEK1/2 detection)
Details: not given
Method in brief: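 Detection is by ELISA: after a 30 min room-temperature reaction, plate-captured GST-MEK-1 is probed with anti-phospho MEK1/2, then an AP-tagged secondary antibody with fluorescent Attophos read-out.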

T1 sequence (P15056 whole entry V600E): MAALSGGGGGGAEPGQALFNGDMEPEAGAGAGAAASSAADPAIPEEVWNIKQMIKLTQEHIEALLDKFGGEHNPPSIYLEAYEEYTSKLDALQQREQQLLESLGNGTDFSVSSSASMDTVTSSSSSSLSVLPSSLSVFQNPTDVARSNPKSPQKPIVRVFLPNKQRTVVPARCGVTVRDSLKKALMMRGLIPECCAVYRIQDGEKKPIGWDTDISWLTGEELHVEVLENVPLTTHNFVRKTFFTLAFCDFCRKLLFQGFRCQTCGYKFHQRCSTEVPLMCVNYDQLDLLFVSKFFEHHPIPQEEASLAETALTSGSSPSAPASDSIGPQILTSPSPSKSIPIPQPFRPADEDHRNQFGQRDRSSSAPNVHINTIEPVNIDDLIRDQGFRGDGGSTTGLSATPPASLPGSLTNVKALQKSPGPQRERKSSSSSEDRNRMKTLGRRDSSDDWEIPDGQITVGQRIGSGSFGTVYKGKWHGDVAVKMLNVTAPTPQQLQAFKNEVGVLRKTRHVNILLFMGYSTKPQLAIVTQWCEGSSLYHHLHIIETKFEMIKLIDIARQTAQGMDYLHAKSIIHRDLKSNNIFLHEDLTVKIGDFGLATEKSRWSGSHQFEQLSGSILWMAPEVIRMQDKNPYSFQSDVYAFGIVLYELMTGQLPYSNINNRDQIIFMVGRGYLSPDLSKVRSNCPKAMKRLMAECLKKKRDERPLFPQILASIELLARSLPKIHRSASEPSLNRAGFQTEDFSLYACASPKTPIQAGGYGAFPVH

SMILES | IC50 [nM]
O=C(c1ccncc1)N1CCC[C@@H](Nc2nccc(-c3c(-c4ccc(F)cc4)nc4occn34)n2)C1 [Example 32, 4-[6-(4-fluorophenyl)imi-dazo[2,1-b][1,3]oxazol-5-yl]-N-[(3R)-1-isonicotinoylpiper-idin-3-yl]pyrimidin-2-amine] | 362
CC(C)(N)C(=O)N1CCC(Nc2nccc(-c3c(-c4ccc(F)cc4)nc4occn34)n2)CC1 [Example 191, N-[1-(2-amino-2-methylpropanoyl)piperidin-4-yl]-4-[6-(4-fluorophenyl)imi-dazo[2,1-b][1,3]oxazol-5-yl]pyrimidin-2-amine] | 3760
COCC(=O)N1CCC[C@@H](Nc2nccc(-c3c(-c4ccc(F)cc4)nc4occn34)n2)C1 [Example 30, 4-[6-(4-fluorophenyl)imi-dazo[2,1-b][1,3]oxazol-5-yl]-N-[(3R)-1-(methoxyacetyl)piperidin-3-yl]pyrimidin-2-amine] | 711

Same assay, conditions: @ 10 uM; read-out: Mutant B-RAF % inhibition

inhibition at 10 µM [%] | SMILES
24 | CCOC(=O)c1ccc(-c2nc3sccn3c2-c2ccnc(N[C@@H]3CCCNC3)n2)cc1OCC [Example 128, ethyl 2-ethoxy-4-(5-{2-[(3R)-piperidin-3-ylamino]pyrimidin-4-yl}imidazo[2,1-b][1,3]thiazol-6-yl)benzoate]
47 | O=S(=O)(c1c(F)cccc1F)N1CCC[C@@H](Nc2nccc(-c3c(-c4ccc(F)cc4)nc4occn34)n2)C1 [Example 54, N-{(3R)-1-[(2,6-difluoro-phenyl)sulfonyl]piperidin-3-yl}-4-[6-(4-fluorophenyl)imidazo[2,1-b][1,3]oxazol-5-yl]pyrimidin-2-amine]
29 | c1cc(-c2c(-c3ccc4c(c3)OCCO4)nc3sccn23)nc(N[C@@H]2CCCNC2)n1 [Example 99, 4-[6-(2,3-dihydro-1,4-benzodioxin-6-yl)imidazo[2,1-b][1,3]thiazol-5-yl]-N-[(3R)-piperidin-3-yl]pyrimidin-2-amine]
40 | CC(=O)Nc1nc(C)c(S(=O)(=O)N2CCC(Nc3nccc(-c4c(-c5ccc(F)cc5)nc5occn45)n3)CC2)s1 [Example 228, N-(5-{(4-({4-[6-(4-fluorophenyl)imidazo[2,1-b][1,3]oxazol-5-yl]pyrimidin-2-yl}amino)piperidin-1-yl]sulfonyl}-4-methyl-1,3-thiazol-2-yl)acetamide]
73 | CS(=O)(=O)N1CCC(Nc2nccc(-c3c(-c4ccc(F)cc4Cl)nc4occn34)n2)CC1 [Example 312, 4-[6-(2-chloro-4-fluorophenyl)imidazo[2,1-b][1,3]oxazol-5-yl]-N-[1-(methylsulfonyl)piperidin-4-yl]pyrimidin-2-amine]
36 | COc1cccc(-c2nc3sccn3c2-c2ccnc(N[C@@H]3CCNC3)n2)c1 [Example 279, 4-[6-(3-methoxyphenyl)imidazo[2,1-b][1,3]thiazol-5-yl]-N-[(3R)-pyrrolidin-3-yl]pyrimidin-2-amine]
55 | O=C(NCc1ccc(F)cc1)N1CCC(Nc2nccc(-c3c(-c4ccc(F)cc4)nc4occn34)n2)CC1 [Example 194, N-(4-fluorobenzyl)-4-({4-[6-(4-fluorophenyl)imidazo[2,1-b][1,3]oxazol-5-yl]pyrimidin-2-yl}amino)piperidine-1-carboxamide]
25 | O=S(=O)(c1cc(Cl)cc(Cl)c1)N1CCC[C@@H](Nc2nccc(-c3c(-c4ccc(F)cc4)nc4occn34)n2)C1 [Example 51, N-{(3R)-1-[(3,5-dichlorophenyl)sulfonyl]pip-eridin-3-yl}-4-[6-(4-fluorophenyl)imidazo[2,1-b][1,3]oxazol-5-yl]pyrimidin-2-amine]

Same assay, conditions: read-out: Mutant B-RAF % inhibition

SMILES | inhibition at 10 µM [%]
Fc1ccc(-c2nc3sccn3c2-c2ccnc(N[C@@H]3CCCNC3)n2)cc1 [Example 62] | 45
COc1cccc(-c2nc3sccn3c2-c2ccnc(N[C@@H]3CCCN(C(=O)NCc4ccco4)C3)n2)c1 [Example 81, (3R)-N-(2-furylmethyl)-3-({4-[6-(3-methoxyphenyl)imi-dazo[2,1-b][1,3]thiazol-5-yl]pyrimidin-2-yl}amino)piperidine-1-carboxamide] | 50

Same assay, conditions: read-out: Mutant B-RAF IC50

IC50 [nM] | SMILES
630 | N#Cc1ccc(S(=O)(=O)N2CCC[C@@H](Nc3nccc(-c4c(-c5ccc(F)cc5)nc5occn45)n3)C2)cc1 [Example 55, 4-{[(3R)-3-({4-[6-(4-fluorophenyl)imidazo[2,1-b][1,3]oxazol-5-yl]pyrimidin-2-yl}amino)piperidin-1-yl]sulfonyl}benzonitrile]
1040 | Oc1cccc(-c2nc3sccn3c2-c2ccnc(N[C@@H]3CCCN(CC(O)COc4ccc(Cl)cc4)C3)n2)c1 (stereo partly drawn) [Example 331, 3-{5-[2-({(3R)-1-[3-(4-chlorophenoxy)-2-hydroxypropyl]piperidin-3-yl}amino)pyrimidin-4-yl]imidazo[2,1-b][1,3]thiazol-6-yl}phenol]
850 | COc1cccc(-c2nc3sccn3c2-c2ccnc(N[C@@H]3CCCN(S(C)(=O)=O)C3)n2)c1 [Example 151, 4-[6-(3-methoxyphenyl)imidazo[2,1-b][1,3]thiazol-5-yl]-N-[(3R)-1-(methylsulfonyl)piperidin-3-yl]pyrimidin-2-amine]
314 | c1ccc2cc(-c3nc4sccn4c3-c3ccnc(N[C@@H]4CCCNC4)n3)ccc2c1 [Example 97, 4-[6-(2-naphthyl)imidazo[2,1-b][1,3]thiazol-5-yl]-N-[(3R)-piperidin-3-yl]pyrimidin-2-amine]
10 | O=C(O)CCc1ccc(S(=O)(=O)N2CCC(Nc3nccc(-c4c(-c5cccc(O)c5)nc5sccn45)n3)CC2)cc1 [Example 273, 3-(4-{[4-({4-[6-(3-hydroxyphenyl)imidazo[2,1-b][1,3]thiazol-5-yl]pyrimidin-2-yl}amino)piperidin-1-yl]sulfonyl}phenyl)propanoic acid]
258 | CS(=O)(=O)N1CCC(Nc2nccc(-c3c(-c4cccc(O)c4)nc4occn34)n2)CC1 [Example 342, 3-[5-(2-{[1-(methylsulfonyl)piperidin-4-yl]amino}pyrimidin-4-yl)imidazo[2,1-b][1,3]oxazol-6-yl]phenol]
11 | O=S(=O)(C1CC1)N1CCC(Nc2nccc(-c3c(-c4cccc(O)c4)nc4sccn34)n2)CC1 [Example 315, 3-[5-(2-{[1-(cyclopropylsulfonyl)piperidin-4-yl]amino}pyrimidin-4-yl)imidazo[2,1-b][1,3]thiazol-6-yl}phenol]
2560 | COc1ccc(NC(=O)N2CCC(Nc3nccc(-c4c(-c5ccc(F)cc5)nc5occn45)n3)CC2)cc1 [Example 173, 4-({4-[6-(4-fluorophenyl)imidazo[2,1-b][1,3]oxazol-5-yl]pyrimidin-2-yl}amino)-N-(4-methoxyphenyl)piperidine-1-carboxamide]
1220 | O=C(NS(=O)(=O)c1ccc(Cl)cc1)N1CCC(Nc2nccc(-c3c(-c4cccc(O)c4)nc4occn34)n2)CC1 [Example 323, N-[(4-chlorophenyl)sulfonyl]-4-({4-[6-(3-hydroxyphenyl)imidazo[2,1-b][1,3]oxazol-5-yl]pyrimidin-2-yl}amino)piperidine-1-carboxamide]
266 | O=C(NCCc1ccccc1)N1CCC(Nc2nccc(-c3c(-c4ccc(F)cc4)nc4occn34)n2)CC1 [Example 169, 4-({4-[6-(4-fluorophenyl)imidazo[2,1-b][1,3]oxazol-5-yl]pyrimidin-2-yl}amino)-N-(2-phenylethyl)piperidine-1-carboxamide]
> 10000 | O=S(=O)(c1ccc(Oc2ccccc2)cc1)N1CCC(Nc2nccc(-c3c(-c4ccc(F)cc4)nc4occn34)n2)CC1 [Example 238, 4-[6-(4-fluorophenyl)imidazo[2,1-b][1,3]oxazol-5-yl]-N-{1-[(4-phenoxyphenyl)sulfonyl]piper-idin-4-yl}pyrimidin-2-amine]
30 | Cc1nc(-c2cccc(-c3nc4sccn4c3-c3ccnc(N[C@@H]4CCCNC4)n3)c2)no1 [Example 365, 4-{6-[3-(5-methyl-1,2,4-oxadia-zol-3-yl)phenyl]imidazo[2,1-b][1,3]thiazol-5-yl}-N-[(3R)-piperidin-3-yl]pyrimidin-2-amine]
1590 | NS(=O)(=O)Oc1cccc(-c2nc3occn3c2-c2ccnc(N[C@@H]3CCCN(S(=O)(=O)c4ccc(Cl)cc4)C3)n2)c1 [Example 380, 3-{5-[2-({(3R)-1-[(4-chlorophenyl)sulfonyl]piperidin-3-yl}amino)pyrimidin-4-yl]imidazo[2,1-b][1,3]oxazol-6-yl}phenyl sulfamate]
1370 | O=C(O)c1ccc(S(=O)(=O)N2CCC(Nc3nccc(-c4c(-c5ccc(F)cc5)nc5occn45)n3)CC2)cc1 [Example 229, 4-{[4-({4-[6-(4-fluorophenyl)imidazo[2,1-b][1,3]oxazol-5-yl]pyrimidin-2-yl}amino)piperidin-1-yl]sulfonyl)benzoic acid]
2700 | O=C(c1ccc(F)cc1)N1CCC(Nc2nccc(-c3c(-c4ccc(F)cc4)nc4occn34)n2)CC1 [Example 181, N-[1-(4-fluorobenzoyl)piperidin-4-yl]-4-[6-(4-fluorophenyl)imidazo[2,1-b][1,3]oxazol-5-yl]pyrimidin-2-amine]
429 | Nc1cccc(-c2nc3sccn3c2-c2ccnc(N[C@@H]3CCCN(S(=O)(=O)c4ccc(Cl)cc4)C3)n2)c1 [Example 122, 4-[6-(3-aminophenyl)imidazo[2,1-b][1,3]thiazol-5-yl]-N-{(3R)-1-[(4-chlorophenyl)sulfonyl]piper-idin-3-yl}pyrimidin-2-amine]
> 3000 | CN(C)c1ccc(NC(=O)N2CCC(Nc3nccc(-c4c(-c5ccc([N+](=O)[O-])cc5)nc5sccn45)n3)CC2)cc1 [Example 253, N-[4-(dimethylamino)phenyl]-4-({4-[6-(4-nitrophenyl)imidazo[2,1-b][1,3]thiazol-5-yl]pyrimid-in-2-yl}amino)piperidine-1-carboxamide]
3 | O=S(=O)(c1cccs1)N1CCC[C@@H](Nc2nccc(-c3c(-c4cccc(O)c4)nc4sccn34)n2)C1 [Example 371, 3-[5-(2-{[(3R)-1-(2-thienylsulfonyl)piperidin-3-yl]amino}pyrimidin-4-yl)imidazo[2,1-b][1,3]thiazol-6-yl]phenol]
